Test results from PubChem BioAssay AID248 (DTP/NCI, 2004).
“And” between values parts separate entries of the source, which are not always exact repeats. Identical values can stand only once. Inconclusive results and toxic doses are left out.

Tested on: L1210 leukemia ip in BDF1 mice, survival T/C
Assay: NCI In Vivo Anticancer Drug Screen. Data for tumor model L1210 Leukemia (intraperitoneal) in B6D2F1 (BDF1) mice
Conditions: endpoint: mean survival time, higher = longer survival
In short: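 In this screen, tumor-bearing mice given compound are compared to those given vehicle, and their survival values are reported as a treated-to-control quotient.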

[1] = dose: 100.0 mg/kg/injection, schedule: Q04DX003 (ip), vehicle: Klucel (hydroxypropylcellulose) (HPC)
[2] = dose: 200.0 mg/kg/injection, schedule: Q04DX003 (ip), vehicle: Klucel (hydroxypropylcellulose) (HPC)
[3] = dose: 400.0 mg/kg/injection, schedule: Q04DX003 (ip), vehicle: Klucel (hydroxypropylcellulose) (HPC)
[4] = dose: 200.0 mg/kg/injection, schedule: Q01DX009 (ip), vehicle: saline with Tween-80
[5] = dose: 200.0 mg/kg/injection, schedule: Q04DX003 (ip), vehicle: saline with Tween-80
[6] = dose: 400.0 mg/kg/injection, schedule: Q04DX003 (ip), vehicle: saline with Tween-80
[7] = dose: 100.0 mg/kg/injection, schedule: Q04DX003 (ip), vehicle: saline with Tween-80
[8] = dose: 200.0 mg/kg/injection, schedule: Q01DX001 (ip), vehicle: carboxymethylcellulose (CMC)
[9] = dose: 100.0 mg/kg/injection, schedule: Q01DX001 (ip), vehicle: carboxymethylcellulose (CMC)

With Cc1ccc(Cl)cc1NC(=O)Nc1ccccc1 the T/C (dose: 0.75 mg/kg/injection, schedule: Q01DX009 (ip), vehicle: Klucel (hydroxypropylcellulose) (HPC)) was 92 % of control, the T/C (dose: 1.5 mg/kg/injection, schedule: Q01DX009 (ip), vehicle: Klucel (hydroxypropylcellulose) (HPC)) was 90 % of control and the T/C (dose: 3.0 mg/kg/injection, schedule: Q01DX009 (ip), vehicle: Klucel (hydroxypropylcellulose) (HPC)) was 94 % of control and 90 % of control. The T/C [1] was 90 % of control, the T/C [2] was 90 % of control and the T/C [3] was 87 % of control.
COP(=O)(OC)OC=C(Cl)Cl was tested, and the T/C (dose: 25.0 mg/kg/injection, schedule: Q04DX002 (ip), vehicle: saline) was 94 % of control, the T/C (dose: 50.0 mg/kg/injection, schedule: Q04DX002 (ip), vehicle: saline) was 105 % of control and the T/C (dose: 100.0 mg/kg/injection, schedule: Q04DX002 (ip), vehicle: saline) was 98 % of control.
For Cc1cc(=O)[nH]c(N/N=C/c2ccccc2O)n1, the T/C (dose: 25.0 mg/kg/injection, schedule: Q01DX009 (ip), vehicle: Klucel (hydroxypropylcellulose) (HPC)) was 93 % of control, the T/C (dose: 50.0 mg/kg/injection, schedule: Q01DX009 (ip), vehicle: Klucel (hydroxypropylcellulose) (HPC)) was 94 % of control and the T/C (dose: 100.0 mg/kg/injection, schedule: Q01DX001 (ip), vehicle: saline) was 98 % of control. The T/C (dose: 100.0 mg/kg/injection, schedule: Q01DX009 (ip), vehicle: Klucel (hydroxypropylcellulose) (HPC)) was 93 % of control, the T/C [1] was 92 % of control and the T/C (dose: 125.0 mg/kg/injection, schedule: Q01DX Z (ip), vehicle: saline) was 97 % of control. The T/C (dose: 200.0 mg/kg/injection, schedule: Q01DX001 (ip), vehicle: saline) was 96 % of control, the T/C (dose: 200.0 mg/kg/injection, schedule: Q01DX009 (ip), vehicle: Klucel (hydroxypropylcellulose) (HPC)) was 95 % of control and 96 % of control and the T/C [2] was 94 % of control. The T/C (dose: 250.0 mg/kg/injection, schedule: Q01DX Z (ip), vehicle: saline) was 91 % of control, the T/C (dose: 400.0 mg/kg/injection, schedule: Q01DX001 (ip), vehicle: saline) was 96 % of control and the T/C [3] was 94 % of control. For the same compound, the T/C (dose: 500.0 mg/kg/injection, schedule: Q01DX Z (ip), vehicle: saline) was 91 % of control and the T/C (dose: 1000.0 mg/kg/injection, schedule: Q01DX Z (ip), vehicle: saline) was 91 % of control.
With CCOC(=O)c1ccc(NC(=O)Nc2ccccc2OC)cc1 the T/C (dose: 100.0 mg/kg/injection, schedule: Q01DX001 (ip), vehicle: saline with Tween-80) was 89 % of control, the T/C (dose: 100.0 mg/kg/injection, schedule: Q01DX009 (ip), vehicle: saline with Tween-80) was 92 % of control and the T/C (dose: 100.0 mg/kg/injection, schedule: Q04DX002 (ip), vehicle: saline with Tween-80) was 94 % of control and 87 % of control. For the same compound, the T/C (dose: 200.0 mg/kg/injection, schedule: Q01DX001 (ip), vehicle: saline with Tween-80) was 92 % of control, the T/C [4] was 95 % of control and the T/C (dose: 200.0 mg/kg/injection, schedule: Q04DX002 (ip), vehicle: saline with Tween-80) was 87 % of control and 91 % of control. The T/C [5] was 87 % of control, the T/C (dose: 400.0 mg/kg/injection, schedule: Q01DX001 (ip), vehicle: saline with Tween-80) was 86 % of control and the T/C (dose: 400.0 mg/kg/injection, schedule: Q01DX009 (ip), vehicle: saline with Tween-80) was 87 % of control. For the same compound, the T/C (dose: 400.0 mg/kg/injection, schedule: Q04DX002 (ip), vehicle: saline with Tween-80) was 87 % of control and the T/C [6] was 92 % of control.
In the case of COc1ccc(C=Nc2ccc(OC(C)=O)cc2)cc1, the T/C (dose: 176.0 mg/kg/injection, schedule: Q01DX009 (ip), vehicle: other) is reported as 105 % of control and the T/C (dose: 264.0 mg/kg/injection, schedule: Q01DX009 (ip), vehicle: other) is reported as 120 % of control.
O=NN(CCF)C(=O)NC1CC2CCC1C2 (configuration not stated) was tested, and the T/C (dose: 3.12 mg/kg/injection, schedule: Q01DX001 (ip), vehicle: other) was 108 % of control, the T/C (dose: 5.7 mg/kg/injection, schedule: Q01DX001 (ip), vehicle: other) was 104 % of control and the T/C (dose: 6.25 mg/kg/injection, schedule: Q01DX001 (ip), vehicle: other) was 118 % of control. The T/C (dose: 12.5 mg/kg/injection, schedule: Q01DX001 (ip), vehicle: other) was 150 % of control, the T/C (dose: 23.0 mg/kg/injection, schedule: Q01DX001 (ip), vehicle: other) was 180 % of control and the T/C (dose: 25.0 mg/kg/injection, schedule: Q01DX001 (ip), vehicle: other) was 180 % of control. For the same compound, the T/C (dose: 37.0 mg/kg/injection, schedule: Q01DX001 (ip), vehicle: other) was 308 % of control, the T/C (dose: 37.5 mg/kg/injection, schedule: Q01DX001 (ip), vehicle: other) was 361 % of control and the T/C (dose: 46.0 mg/kg/injection, schedule: Q01DX001 (ip), vehicle: other) was 310 % of control. For the same compound, the T/C (dose: 56.0 mg/kg/injection, schedule: Q01DX001 (ip), vehicle: other) was 348 % of control.
In the case of N#C/C(=C\c1c(Cl)cccc1Cl)c1ccc([N+](=O)[O-])cc1, the T/C [7] is reported as 106 % of control, the T/C [5] is reported as 95 % of control and the T/C [6] is reported as 92 % of control.
For O=Nc1ccc(C=C2C(=O)C=CC2=O)cc1, the T/C (dose: 75.0 mg/kg/injection, schedule: Q01DX001 (ip), vehicle: saline) was 100 % of control, the T/C (dose: 150.0 mg/kg/injection, schedule: Q01DX001 (ip), vehicle: saline) was 94 % of control and the T/C (dose: 300.0 mg/kg/injection, schedule: Q01DX001 (ip), vehicle: saline) was 101 % of control.
CCCCCCCc1nc(/N=N/N(C)C)c(C(N)=O)[nH]1 was tested, and the T/C [7] was 101 % of control, the T/C [4] was 91 % of control and the T/C [5] was 98 % of control. For the same compound, the T/C [6] was 110 % of control.
CCN(Cc1ccccc1)C(=S)[S-].CCN(Cc1ccccc1)C(=S)[S-].[Zn] was tested, and the T/C (dose: 100.0 mg/kg/injection, schedule: Q04DX003 (ip), vehicle: saline) was 91 % of control, the T/C (dose: 200.0 mg/kg/injection, schedule: Q04DX003 (ip), vehicle: saline) was 94 % of control and the T/C (dose: 400.0 mg/kg/injection, schedule: Q04DX003 (ip), vehicle: saline) was 89 % of control.
For CCOC(=O)C1=C(C)NC(C)=C(C(=O)OCC)C1c1cccc([N+](=O)[O-])c1, the T/C [1] was 100 % of control, the T/C [2] was 105 % of control and the T/C [3] was 108 % of control.
In the case of COc1cc(C=Nc2cc(Br)c(OC)c(Br)c2)ccc1N(CCCl)CCCl, the T/C (dose: 19.0 mg/kg/injection, schedule: Q01DX001 (ip), vehicle: carboxymethylcellulose (CMC)) is reported as 118 % of control, the T/C (dose: 29.0 mg/kg/injection, schedule: Q01DX001 (ip), vehicle: carboxymethylcellulose (CMC)) is reported as 118 % of control and the T/C (dose: 150.0 mg/kg/injection, schedule: Q01DX001 (ip), vehicle: carboxymethylcellulose (CMC)) is reported as 150 % of control. The T/C [8] was 104 % of control.
In the case of CCCCNc1c(C2=NCCN2)cnc2c1cnn2CC, the T/C (dose: 25.0 mg/kg/injection, schedule: Q04DX003 (ip), vehicle: Klucel (hydroxypropylcellulose) (HPC)) is reported as 92 % of control, the T/C (dose: 50.0 mg/kg/injection, schedule: Q04DX003 (ip), vehicle: Klucel (hydroxypropylcellulose) (HPC)) is reported as 99 % of control and the T/C [1] is reported as 90 % of control and 92 % of control.
O=C1NC2CCC1c1ccccc12 (configuration not stated) was tested, and the T/C (dose: 50.0 mg/kg/injection, schedule: Q01DX001 (ip), vehicle: carboxymethylcellulose (CMC)) was 110 % of control, the T/C [9] was 105 % of control and the T/C [8] was 108 % of control.
With CC(=O)N=C(N)N(/N=C(C)\C=N\N(C(C)=O)C(N)=NC(C)=O)C(C)=O the T/C (dose: 15.0 mg/kg/injection, schedule: Q01DX Z (ip), vehicle: carboxymethylcellulose (CMC)) was 96 % of control, the T/C (dose: 30.0 mg/kg/injection, schedule: Q01DX Z (ip), vehicle: carboxymethylcellulose (CMC)) was 96 % of control and the T/C (dose: 60.0 mg/kg/injection, schedule: Q01DX Z (ip), vehicle: carboxymethylcellulose (CMC)) was 93 % of control and 91 % of control. The T/C (dose: 120.0 mg/kg/injection, schedule: Q01DX Z (ip), vehicle: carboxymethylcellulose (CMC)) was 97 % of control and 90 % of control, the T/C (dose: 240.0 mg/kg/injection, schedule: Q01DX Z (ip), vehicle: carboxymethylcellulose (CMC)) was 92 % of control and the T/C (dose: 480.0 mg/kg/injection, schedule: Q01DX Z (ip), vehicle: carboxymethylcellulose (CMC)) was 94 % of control.
In the case of [O-][n+]1ccc(Cl)cc1, the T/C (dose: 100.0 mg/kg/injection, schedule: Q01DX009 (ip), vehicle: saline) is reported as 100 % of control, the T/C (dose: 200.0 mg/kg/injection, schedule: Q01DX009 (ip), vehicle: saline) is reported as 96 % of control and the T/C (dose: 400.0 mg/kg/injection, schedule: Q01DX009 (ip), vehicle: saline) is reported as 94 % of control.
O=C1c2ccc(Br)cc2-c2cc(Br)c([N+](=O)[O-])cc21 was tested, and the T/C [9] was 98 % of control, the T/C [8] was 98 % of control and the T/C (dose: 400.0 mg/kg/injection, schedule: Q01DX001 (ip), vehicle: carboxymethylcellulose (CMC)) was 113 % of control.
For CCO/C(C)=C(/C#N)c1ccc(Cl)cc1, the T/C (dose: 12.5 mg/kg/injection, schedule: Q01DX009 (ip), vehicle: gum acacia) was 104 % of control, the T/C (dose: 25.0 mg/kg/injection, schedule: Q01DX009 (ip), vehicle: gum acacia) was 104 % of control and the T/C (dose: 50.0 mg/kg/injection, schedule: Q01DX009 (ip), vehicle: gum acacia) was 102 % of control.
